This note sets out measurements from patent US11078228B2, “Ectonucleotidase inhibitors and methods of use thereof” (Calithera Biosciences, Inc., priority 2018, dated 2021).

In the test the target is recombinant CD73 (Homo sapiens (Human), UniProt P21589). Description: Assay 2: Inhibition of the CD73 enzyme in vitro (0.05 nM CD73, 1 hour 37° C., Malachite Green). In kind it is biochemical. The note with it: 0.05 nM CD73, 50 μM AMP, 1 hour at 37° C. An outline of the steps: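 Soluble recombinant CD73 reactions ran 1 hour at 37° C. Malachite Green was then added, and absorbance at 630 nm was read after 5 min at room temperature. Inorganic phosphate was quantified from a phosphate standard curve.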
Sequence of recombinant CD73 (P21589 27-547): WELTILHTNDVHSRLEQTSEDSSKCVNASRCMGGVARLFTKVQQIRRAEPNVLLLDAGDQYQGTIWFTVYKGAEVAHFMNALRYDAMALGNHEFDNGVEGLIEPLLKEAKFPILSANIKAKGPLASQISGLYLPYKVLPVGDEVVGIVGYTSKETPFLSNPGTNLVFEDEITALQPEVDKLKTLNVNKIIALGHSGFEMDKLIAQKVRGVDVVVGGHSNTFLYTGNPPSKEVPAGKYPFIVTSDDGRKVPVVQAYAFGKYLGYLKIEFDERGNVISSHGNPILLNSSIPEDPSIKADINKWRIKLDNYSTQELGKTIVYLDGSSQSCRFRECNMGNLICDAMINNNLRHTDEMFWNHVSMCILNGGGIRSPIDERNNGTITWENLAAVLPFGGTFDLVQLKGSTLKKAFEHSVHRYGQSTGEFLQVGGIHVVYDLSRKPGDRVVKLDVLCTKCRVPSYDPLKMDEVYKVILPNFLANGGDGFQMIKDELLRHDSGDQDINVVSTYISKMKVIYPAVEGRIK
As for `C#C[C@@]1(O)[C@@H](COC(Cc2ccc(-c3cccn(CCO)c3=O)cc2)(C(=O)O)C(=O)O)O[C@@H](n2cnc3c(NC(C)C)nc(Cl)nc32)[C@@H]1O` [Example 153, 2-(((2R,3S,4R,5R)-5-(2-chloro-6-(isopropylamino)-9H-purin-9-yl)-3-ethynyl-3,4-dihydroxytetrahydrofuran-2-yl)methoxy)-2-(4-(1-(2-hydroxyethyl)-2-oxo-1,2-dihydropyridin-3-yl)benzyl)malonic acid], the IC50 was determined as 0.48 nM.

Consider `C#C[C@@]1(O)[C@@H](COC(Cc2ccccc2)(C(=O)O)C(=O)O)O[C@@H](n2cnc3c(N4CCC4CO)nc(Cl)nc32)[C@@H]1O` (stereo partly drawn) [Example 42, 2-benzyl-2-(((2R,3S,4R,5R)-5-(2-chloro-6-(2-(hydroxymethyl)azetidin-1-yl)-9H-purin-9-yl)-3-ethynyl-3,4-dihydroxytetrahydrofuran-2-yl)methoxy)malonic acid], for which the IC50 was 1 nM.

Turning to `C#C[C@@]1(O)[C@@H](COC(Cc2ccccc2)(C(=O)O)C(=O)O)O[C@@H](n2cnc3c(NCCCO)nc(Cl)nc32)[C@@H]1O` [Example 34, 2-benzyl-2-(((2R,3S,4R,5R)-5-(2-chloro-6-((3-hydroxypropyl)amino)-9H-purin-9-yl)-3-ethynyl-3,4-dihydroxytetrahydrofuran-2-yl)methoxy)malonic acid], the IC50 was found to be 2 nM.

`C#C[C@@]1(O)[C@@H](COC(Cc2ccccc2)(C(=O)O)C(=O)NC)O[C@@H](n2cnc3c(NCC4CC4)nc(Cl)nc32)[C@@H]1O` (stereo partly drawn) [Example 106, 2-benzyl-2-(((2R,3S,4R,5R)-5-(2-chloro-6-((cyclopropylmethyl)amino)-9H-purin-9-yl)-3-ethynyl-3,4-dihydroxytetrahydrofuran-2-yl)methoxy)-3-(methylamino)-3-oxopropanoic acid]: the half-inhibitory concentration (IC50) worked out at 296 nM.

Turning to `C#C[C@@]1(O)[C@@H](COC(Cc2ccccc2)(C(=O)O)C(=O)O)O[C@@H](n2cnc3c(NCC4CCC4)nc(Cl)nc32)[C@@H]1O` [Example 45, 2-benzyl-2-(((2R,3S,4R,5R)-5-(2-chloro-6-((cyclobutylmethyl)amino)-9H-purin-9-yl)-3-ethynyl-3,4-dihydroxytetrahydrofuran-2-yl)methoxy)malonic acid], the IC50 was determined as 1 nM.

Consider `C#C[C@@]1(O)[C@@H](COC(Cc2ccccc2)(C(=O)O)C(=O)O)O[C@@H](n2cnc3c(N(C)C4CC4)nc(Cl)nc32)[C@@H]1O` [Example 105, 2-benzyl-2-(((2R,3S,4R,5R)-5-(2-chloro-6-(cyclopropyl(methyl)amino)-9H-purin-9-yl)-3-ethynyl-3,4-dihydroxytetrahydrofuran-2-yl)methoxy)malonic acid], for which the IC50 was determined as 2 nM.

As to `C#C[C@@]1(O)[C@@H](COC(Cc2ccccc2)(C(=O)O)C(=O)O)O[C@@H](n2cnc3c(N(CCO)CCO)nc(Cl)nc32)[C@@H]1O` [Example 37, 2-benzyl-2-(((2R,3S,4R,5R)-5-(6-(bis(2-hydroxyethyl)amino)-2-chloro-9H-purin-9-yl)-3-ethynyl-3,4-dihydroxytetrahydrofuran-2-yl)methoxy)malonic acid], the IC50 was determined as 6 nM.

With `C#C[C@@]1(O)[C@@H](COC(Cc2ccsc2)(C(=O)O)c2cscn2)O[C@@H](n2cnc3c(NC(C)C)nc(Cl)nc32)[C@@H]1O` (stereo partly drawn) [Example 169, 2-(((2R,3S,4R,5R)-5-(2-chloro-6-(isopropylamino)-9H-purin-9-yl)-3-ethynyl-3,4-dihydroxytetrahydrofuran-2-yl)methoxy)-2-(thiazol-4-yl)-3-(thiophen-3-yl)propanoic acid], the IC50 was 162 nM.

In the case of `C#C[C@@]1(O)[C@@H](COC(Cc2ccccc2)(C(=O)O)C(=O)O)O[C@@H](n2cnc3c(N)nc(SCC)nc32)[C@@H]1O` [Example 145, 2-(((2R,3S,4R,5R)-5-(6-amino-2-(ethylthio)-9H-purin-9-yl)-3-ethynyl-3,4-dihydroxytetrahydrofuran-2-yl)methoxy)-2-benzylmalonic acid], the IC50 is 108 nM.

For `C#C[C@@]1(O)[C@@H](COC(Cc2ccc(OC(F)(F)F)cc2)(C(=O)O)c2cscn2)O[C@@H](n2cnc3c(NC(C)C)nc(Cl)nc32)[C@@H]1O` (stereo partly drawn) [Example 174, 2-(((2R,3S,4R,5R)-5-(2-chloro-6-(isopropylamino)-9H-purin-9-yl)-3-ethynyl-3,4-dihydroxytetrahydrofuran-2-yl)methoxy)-2-(thiazol-4-yl)-3-(4-(trifluoromethoxy)phenyl)propanoic acid], the IC50 is 17 nM.

As to `C#C[C@@]1(O)[C@@H](COC(Cc2ccccc2)(C(=O)O)C(=O)O)O[C@@H](n2cnc3c(NCc4cccc(F)c4)nc(Cl)nc32)[C@@H]1O` [Example 85, 2-benzyl-2-(((2R,3S,4R,5R)-5-(2-chloro-6-((3-fluorobenzyl)amino)-9H-purin-9-yl)-3-ethynyl-3,4-dihydroxytetrahydrofuran-2-yl)methoxy)malonic acid], the half-maximal inhibitory concentration (IC50) was 2 nM.

Turning to `C#C[C@@]1(O)[C@@H](COC(Cc2ccc(N3CCCC3)cc2)(C(=O)O)C(=O)O)O[C@@H](n2cnc3c(N)nc(Cl)nc32)[C@@H]1O` [Example 144, 2-(((2R,3S,4R,5R)-5-(6-amino-2-chloro-9H-purin-9-yl)-3-ethynyl-3,4-dihydroxytetrahydrofuran-2-yl)methoxy)-2-(4-(pyrrolidin-1-yl)benzyl)malonic acid], the IC50 was found to be 1 nM.

For `C#C[C@@]1(O)[C@@H](COC(Cc2ccc(-c3cccn(CCOC)c3=O)cc2)(C(=O)O)C(=O)O)O[C@@H](n2cnc3c(N)nc(Cl)nc32)[C@@H]1O` [Example 146, 2-(((2R,3S,4R,5R)-5-(6-amino-2-chloro-9H-purin-9-yl)-3-ethynyl-3,4-dihydroxytetrahydrofuran-2-yl)methoxy)-2-(4-(1-(2-methoxyethyl)-2-oxo-1,2-dihydropyridin-3-yl)benzyl)malonic acid], the 50% inhibitory concentration (IC50) stood at 0.41 nM.

For the compound `C#C[C@@]1(O)[C@@H](CO[C@](Cc2ccccc2)(C(=O)O)c2cscn2)O[C@@H](n2cnc3c(NCC4CC4)nc(Cl)nc32)[C@@H]1O` (single isomer, unassigned) [Example 172], the IC50 amounted to 6 nM.

For the compound `C#C[C@@]1(O)[C@@H](COC(Cc2ccc(N3CCCNC3=O)cc2)(C(=O)O)c2cscn2)O[C@@H](n2cnc3c(NC(C)C)nc(Cl)nc32)[C@@H]1O` (stereo partly drawn) [Example 176, 2-(((2R,3S,4R,5R)-5-(2-chloro-6-(isopropylamino)-9H-purin-9-yl)-3-ethynyl-3,4-dihydroxytetrahydrofuran-2-yl)methoxy)-3-(4-(2-oxotetrahydropyrimidin-1(2H)-yl)phenyl)-2-(thiazol-4-yl)propanoic acid], the IC50 worked out at 5 nM.

In the case of `C#C[C@@]1(O)[C@@H](COC(Cc2ccccc2)(C(=O)O)C(=O)O)O[C@@H](n2cnc3c(NCC(C)(C)O)nc(Cl)nc32)[C@@H]1O` [Example 94, 2-benzyl-2-(((2R,3S,4R,5R)-5-(2-chloro-6-((2-hydroxy-2-methylpropyl)amino)-9H-purin-9-yl)-3-ethynyl-3,4-dihydroxytetrahydrofuran-2-yl)methoxy)malonic acid], the IC50 amounted to 5 nM.

Consider `C#C[C@@]1(O)[C@@H](COC(Cc2ccccc2)(C(=O)O)C(=O)O)O[C@@H](n2cnc3c(N)nc(C(C)O)nc32)[C@@H]1O` (stereo partly drawn) [Example 161, 2-(((2R,3S,4R,5R)-5-(6-amino-2-(1-hydroxyethyl)-9H-purin-9-yl)-3-ethynyl-3,4-dihydroxytetrahydrofuran-2-yl)methoxy)-2-benzylmalonic acid], for which the IC50 was 561 nM.

For the compound `C#C[C@@]1(O)[C@@H](COC(Cc2ccccc2)(C(=O)O)C(=O)O)O[C@@H](n2cnc3c(N)nc(C(N)=O)nc32)[C@@H]1O` [Example 122, 2-(((2R,3S,4R,5R)-5-(6-amino-2-carbamoyl-9H-purin-9-yl)-3-ethynyl-3,4-dihydroxytetrahydrofuran-2-yl)methoxy)-2-benzylmalonic acid], the half-maximal inhibitory concentration (IC50) was found to be 40 nM.

Regarding `C#C[C@@]1(O)[C@@H](COC(Cc2ccccc2)(C(=O)O)C(=O)O)O[C@@H](n2cnc3c(-c4cccs4)nc(Cl)nc32)[C@@H]1O` [Example 18, 2-benzyl-2-(((2R,3S,4R,5R)-5-(2-chloro-6-(thiophen-2-yl)-9H-purin-9-yl)-3-ethynyl-3,4-dihydroxytetrahydrofuran-2-yl)methoxy)malonic acid], the IC50 turned out to be 0.3 nM.

Regarding `C#C[C@@]1(O)[C@@H](COC(Cc2ccc(-c3cccn(CCC)c3=O)cc2)(C(=O)O)C(=O)O)O[C@@H](n2cnc3c(N)nc(Cl)nc32)[C@@H]1O` [Example 19, 2-(((2R,3S,4R,5R)-5-(6-amino-2-chloro-9H-purin-9-yl)-3-ethynyl-3,4-dihydroxytetrahydrofuran-2-yl)methoxy)-2-(4-(2-oxo-1-propy-1,2-dihydropyridin-3-yl)benzyl)malonic acid], the IC50 is 0.2 nM.

On to `C#C[C@@]1(O)[C@@H](COC(Cc2ccccc2)(C(=O)O)C(=O)O)O[C@@H](n2cnc3c(NCc4ccc(Cl)cc4)nc(Cl)nc32)[C@@H]1O` [Example 87, 2-benzyl-2-(((2R,3S,4R,5R)-5-(2-chloro-6-((4-chlorobenzyl)amino)-9H-purin-9-yl)-3-ethynyl-3,4-dihydroxytetrahydrofuran-2-yl)methoxy)malonic acid], for which the concentration for half-maximal inhibition (IC50) came out at 0.6 nM.

Regarding `C#C[C@@]1(O)[C@@H](COC(Cc2ccn[nH]2)(C(=O)O)C(=O)O)O[C@@H](n2cnc3c(N)nc(Cl)nc32)[C@@H]1O` [Example 158, 2-((1H-pyrazol-5-yl)methyl)-2-(((2R,3S,4R,5R)-5-(6-amino-2-chloro-9H-purin-9-yl)-3-ethynyl-3,4-dihydroxytetrahydrofuran-2-yl)methoxy)malonic acid], the IC50 stood at 8 nM.

As to `C#C[C@@]1(O)[C@@H](COC(Cc2ccccc2)(C(=O)O)C(=O)O)O[C@@H](n2cnc3ccc(Cl)nc32)[C@@H]1O` [Example 58, 2-benzyl-2-(((2R,3S,4R,5R)-5-(5-chloro-3H-imidazo[4,5-b]pyridin-3-yl)-3-ethynyl-3,4-dihydroxytetrahydrofuran-2-yl)methoxy)malonic acid], the IC50 turned out to be 1.6 nM.

A word on the IC50: it is the concentration that inhibits the measured activity by half.
